Read-outs that look alike come from different tables or passages of the source.
How the values were obtained:
Obese Zucker rats [1] = assay: In vivo assessment in obese Zucker rats: body weight and food intake; conditions: obese Zucker rats, daily 400 μg Cr(III)/kg, mean; for Food Intake 5 wks: at 5 weeks; for Food Intake 7 wks: at 7 weeks
Obese Zucker rats [2] = assay: In vivo assessment in obese Zucker rats: blood lipid profile (total cholesterol, triglycerides, HDL); conditions: daily 400 μg Cr(III)/kg, 8 weeks, mean
Obese Zucker rats [3] = assay: In vivo assessment in obese Zucker rats: other vascular inflammation markers (cAMP, TNFα, IL-6, OxyDNA); conditions: obese Zucker rats, daily 400 μg Cr(III)/kg, 8 weeks, mean ± SE; for OxyDNA: oxidative DNA damage
Obese Zucker rats [4] = assay: In vivo assessment in obese Zucker rats: vascular inflammation markers (MCP-1, CRP, RBP-4, leptin, ICAM, adiponectin); conditions: obese Zucker rats, daily 400 μg Cr(III)/kg, 8 weeks, mean; for Adiponectin / CRP / ICAM / MCP-1: plasma, ELISA
Obese Zucker rats [5] = assay: In vivo assessment in obese Zucker rats: key biological parameters (fasting glucose, HbA1c, vitamin C, GSH, RBC lipid peroxidation); conditions: obese Zucker rats, daily 400 μg Cr(III)/kg, 8 weeks, mean; for RBC Lipid Peroxidase: malondialdehyde by thiobarbituric acid; for Fasting Glucose: fasted overnight; for Vitamin C: plasma
Obese Zucker rats [6] = assay: In vivo assessment in obese Zucker rats: clinical chemistry (AP, BUN, CRT, AST, ALT); conditions: obese Zucker rats; mean ± SE
Obese Zucker rats [7] = conditions: rat, in vivo

Substance | HDL (Obese Zucker rats [2]) | Total Chol/HDL (Obese Zucker rats [2]) | Total Cholesterol (Obese Zucker rats [2]) | Triglyceride (Obese Zucker rats [2]) | IL-6 (Obese Zucker rats [3]) | TNFα (Obese Zucker rats [3]) | cAMP (Obese Zucker rats [3]) | OxyDNA (Obese Zucker rats [3]) | Leptin (Obese Zucker rats [4]) | RBP-4 (Obese Zucker rats [4]) | Adiponectin (Obese Zucker rats [4]) | CRP (Obese Zucker rats [4]) | MCP-1 (Obese Zucker rats [4]) | RBC Lipid Peroxidase (Obese Zucker rats [5]) | Fasting Glucose (Obese Zucker rats [5]) | GSH (Obese Zucker rats [5]) | HbA1c (Obese Zucker rats [5]) | ALT (Alanine Aminotransferease) (Obese Zucker rats [6]) | AP (Alkaline phosphatase) (Obese Zucker rats [6]) | AST (Aspartate Aminotransferase) (Obese Zucker rats [6]) | other results
Chromium Dinicotinate Argininate [Cr(nic)2Arg] | 69.78 mg/dL | 3.00 ratio | 186.16 mg/dL | 554.65 mg/dL | 92.35 ± 2.79 pg/mL | 17.84 ± 1.26 pg/mL | 38.96 ± 3.88 pmol/mL | 58.26 ± 2.57 ng/mL | 335.80 pg/mL | 52537.50 ng/mL | 9279.38 ng/mL | 628.49 ng/mL | 3235.62 pg/mL | 2.47 nmol/mL | 628.87 mg/dL | 4.89 µmol/g | 16.56% | – | – | – | Food Intake 5 wks (Obese Zucker rats [1]): 40.22 g/day; Food Intake 7 wks (Obese Zucker rats [1]): 45.28 g/day; ICAM (Obese Zucker rats [4]): 18591.76 pg/mL; Vitamin C (Obese Zucker rats [5]): 0.14 mg %
Chromium Tryptophanate [CrTrp] | 60.54 mg/dL | 3.46 ratio | 208.09 mg/dL | 921.22 mg/dL | 86.62 ± 6.81 pg/mL | 36.61 ± 14.89 pg/mL | 20.03 ± 0.96 pmol/mL | 45.14 ± 2.77 ng/mL | 601.72 pg/mL | 60593.24 ng/mL | 11122.93 ng/mL | 609.82 ng/mL | 2578.59 pg/mL | 1.78 nmol/mL | 402.77 mg/dL | 4.54 µmol/g | 14.16% | 124.29 u/L | 30.00 u/L | 237.43 u/L | Anion Gap (Obese Zucker rats [6]): 30.14; BUN (Blood Urea Nitrogen) (Obese Zucker rats [6]): 17.43 mg/dL; BUN/CRT Ratio (Obese Zucker rats [6]): 45.86; CRT (Creatinine) (Obese Zucker rats [6]): 0.39 mg/dL; Total Bilirubin (Obese Zucker rats [6]): 0.10 mg/dL
Chromium Dinicotinate Aspartate [Cr(nic)2Asp] | 70.17 mg/dL | 2.88 ratio | 202.17 mg/dL | 699.67 mg/dL | 88.91 ± 2.25 pg/mL | – | 27.95 ± 1.22 pmol/mL | 41.92 ± 1.46 ng/mL | 406.15 pg/mL | 57870.00 ng/mL | 12078.33 ng/mL | 602.51 ng/mL | 1431.68 pg/mL | 2.02 nmol/mL | 496.33 mg/dL | 5.15 µmol/g | 15.62% | – | – | – | Food Intake 5 wks (Obese Zucker rats [1]): 38.90 g/day; Food Intake 7 wks (Obese Zucker rats [1]): 40.00 g/day; ICAM (Obese Zucker rats [4]): 17985.91 pg/mL; Vitamin C (Obese Zucker rats [5]): 0.12 mg %
Chromium tris(5-hydroxytryptophan) [Cr(5HTP)3] | 68.84 mg/dL | 2.72 ratio | 184.77 mg/dL | 452.96 mg/dL | 94.32 ± 11.71 pg/mL | 13.35 ± 8.28 pg/mL | 25.64 ± 2.39 pmol/mL | 45.89 ± 4.53 ng/mL | 359.61 pg/mL | 44517.99 ng/mL | 11831.51 ng/mL | 589.26 ng/mL | 1932.18 pg/mL | 1.93 nmol/mL | 585.25 mg/dL | 5.04 µmol/g | 16.15% | 167.00 u/L | 25.00 u/L | 267.43 u/L | Anion Gap (Obese Zucker rats [6]): 29.43; BUN (Blood Urea Nitrogen) (Obese Zucker rats [6]): 22.86 mg/dL; BUN/CRT Ratio (Obese Zucker rats [6]): 57.29; CRT (Creatinine) (Obese Zucker rats [6]): 0.40 mg/dL; Total Bilirubin (Obese Zucker rats [6]): 0.10 mg/dL
Chromium Glucodinicotinate [Cr(nic)2Gluc] | 65.71 mg/dL | 3.06 ratio | 197.33 mg/dL | 534.43 mg/dL | 81.59 ± 5.21 pg/mL | 29.40 ± 8.87 pg/mL | 22.25 ± 1.58 pmol/mL | 45.10 ± 3.76 ng/mL | 388.37 pg/mL | 48851.14 ng/mL | 11448.39 ng/mL | 530.74 ng/mL | 1977.46 pg/mL | 2.00 nmol/mL | 474.38 mg/dL | 4.62 µmol/g | 15.21% | 138.00 u/L | 27.00 u/L | 238.67 u/L | BUN/CRT Ratio (Obese Zucker rats [7]): 53.67; Anion Gap (Obese Zucker rats [6]): 29.00; BUN (Blood Urea Nitrogen) (Obese Zucker rats [6]): 21.33 mg/dL; CRT (Creatinine) (Obese Zucker rats [6]): 0.40 mg/dL; Total Bilirubin (Obese Zucker rats [6]): 0.10 mg/dL

Reference: patent US9700546B2, “Trivalent chromium compounds, compositions and methods of use” (INTERHEALTH NUTRACEUTICALS, INC., priority 2006, dated 2017)
